Data set [1] deals with iMSCs. Kind of data set: Cell viability (CCK8) after lipopeptide/placZ transfection. It is filed as cell-based. The settings on record: 24 h. On the procedure:
(§1) Lipopeptide (LP1 or LP2) was dissolved in MeOH in order to create a lipid film with a desired concentration. Afterwards, the organic solvent was removed under nitrogen flow, obtaining the corresponding lipid film. The film was then hydrated with 1 mL of OptiMEM Reduced Serum Medium (1X). Lipopeptide/pDNA complexes were then formed by mixing placZ or pGFP plasmid (742 ng) with the corresponding lipopeptide (LP1 or LP2) solution to obtain various concentrations (2.5–50 µg/mL), thus being able to carry out different analysis. All mixtures were allowed to complex for 30 min at rt before being used in different experiments. Lipofectamine was used as positive control; their corresponding lipoplexes were prepared with the same plasmid concentrations and the recommended reagent volume, according to the manufacturer instructions.
(§2) HEK 293T (75000 cells/well in 48 well‐plates) or iMSCs (10000 cells/well in 96 well‐plates) were allowed to attach for 24 h at 37 °C before the experiments. Then, cells were transfected with lipopeptide (LP1 or LP2)/pDNA (placZ or pGFP) complexes and incubated for 24 h at 37 °C and 5% CO2. Untransfected cells (negative control) or cells transfected with Lipofectamine (positive control) were assessed in parallel. All conditions were evaluated by quadrupled.
(§3) Viability of the cell monolayers was monitored at 24 h using the CCK8 reagent, following the supplier's instructions (Neo Biotech, France). Briefly, cells were washed with 1X PBS (pH 7.4), and then incubated with CCK8 reagent (100 µL; 1:10 dilution in DMEM) for at least 2 h at 37 °C and 5% CO2. The absorbance (Abs) signal at 450 nm was measured in a Sinergy HTX Plate reader. Cell viability was obtained with the following formula: Cellviability%=Abssample450nm/Abscontrol450nm×100

Another data set concerns HEK 293T cells. The data set is described as above. It is filed as cell-based. The settings on record: 24 h. On the procedure:
as §1, §2, §3

The subject of data set [2] is iMSCs. Description: Cell viability after pGFP transfection (cell number vs untransfected control). The data set is classed as cell-based. As to conditions: pGFP complexes, LP1 100 µg/mL, LP2 40 µg/mL. On the procedure:
In parallel, in situ transfection of iMSCs was evaluated by confocal microscopy (Nikon, Tokyo, Japan) based on GFP expression (Figure 7a). Transfection efficiency was quantified using ImageJ software by calculating the percentage of GFP‐positive cells relative to the total number of cells in four randomly selected fields per condition (Figure 7b). Cell viability was determined by comparing the number of cells in each sample with that of the untransfected control (Figure 7c).

Square brackets hold non-standard residues; d marks the D form. Peptide text beside a SMILES is read from it. * marks the point of attachment. Oleoyl = CCCCCCCC/C=C\CCCCCCCC(=O)*; Dap = NC[C@H](N)C(=O)O

`CCCCCCCC/C=C\CCCCCCCC(=O)NC[C@H](NC(=O)CCCCCCC/C=C\CCCCCCCC)C(=O)N[C@@H](CCCCN)C(=O)N[C@@H](CCCCN)C(=O)N[C@@H](CCCCN)C(=O)O` [LP1, Dioleoyl‐DapKKK] (Oleoyl-[Dap](Oleoyl)KKK-OH): the Z-potential was 25.2 mV. In addition, the cell viability entry in the data set with iMSCs [1] was “above 75%”. For the same compound, in the data set on HEK 293T cells, the cell viability result is listed as “above 75%”. For the same compound, in the data set on iMSCs [2], the “cytotoxicity / cell viability compared with LPF” value was “higher cytotoxicity than LPF”.
For the compound `CCCCCCCC/C=C\CCCCCCCC(=O)NCCCC[C@H](NC(=O)CCCCCCC/C=C\CCCCCCCC)C(=O)N[C@@H](CCCCN)C(=O)N[C@@H](CCCCN)C(=O)N[C@@H](CCCCN)C(=O)O` [LP2, Dioleoyl‐KKKK] (Oleoyl-K(Oleoyl)KKK-OH), the Z-potential worked out at 25.2 mV. Moreover, the cell viability entry with iMSCs [1] is listed as “above 75%”. Further, in the data set on HEK 293T cells, the cell viability result is listed as “above 75%”. Moreover, in the data set with iMSCs [2], the “cytotoxicity / cell viability compared with LPF” value was “higher than in the LPF group”.

The values above are taken from paper PMC13410438, “Self‐Assembling Cationic Lipopeptides for the Construction of Functional Vesicular Gene‐Delivery Systems” (Small (Weinheim an Der Bergstrasse, Germany), 2026).
